Experimental data taken from patent US9957271B2, “Substituted bicyclic aza-heterocycles and analogues as sirtuin modulators” (GlaxoSmithKline, LLC, priority 2012, dated 2018).

Experiments:
SIRT1 [1] = target: T1, SIRT1 (Homo sapiens, UniProt Q96EB6); assay: Trp mass spectrometry assay of SIRT1 activity; type: biochemical; settings: Trp assay; for Trp EC1.5 (μM): concentration giving 150% activation of SIRT1; for Emax: percent maximum fold activation, read-out: Trp % Fold Act
T1 sequence (Q96EB6 1-747): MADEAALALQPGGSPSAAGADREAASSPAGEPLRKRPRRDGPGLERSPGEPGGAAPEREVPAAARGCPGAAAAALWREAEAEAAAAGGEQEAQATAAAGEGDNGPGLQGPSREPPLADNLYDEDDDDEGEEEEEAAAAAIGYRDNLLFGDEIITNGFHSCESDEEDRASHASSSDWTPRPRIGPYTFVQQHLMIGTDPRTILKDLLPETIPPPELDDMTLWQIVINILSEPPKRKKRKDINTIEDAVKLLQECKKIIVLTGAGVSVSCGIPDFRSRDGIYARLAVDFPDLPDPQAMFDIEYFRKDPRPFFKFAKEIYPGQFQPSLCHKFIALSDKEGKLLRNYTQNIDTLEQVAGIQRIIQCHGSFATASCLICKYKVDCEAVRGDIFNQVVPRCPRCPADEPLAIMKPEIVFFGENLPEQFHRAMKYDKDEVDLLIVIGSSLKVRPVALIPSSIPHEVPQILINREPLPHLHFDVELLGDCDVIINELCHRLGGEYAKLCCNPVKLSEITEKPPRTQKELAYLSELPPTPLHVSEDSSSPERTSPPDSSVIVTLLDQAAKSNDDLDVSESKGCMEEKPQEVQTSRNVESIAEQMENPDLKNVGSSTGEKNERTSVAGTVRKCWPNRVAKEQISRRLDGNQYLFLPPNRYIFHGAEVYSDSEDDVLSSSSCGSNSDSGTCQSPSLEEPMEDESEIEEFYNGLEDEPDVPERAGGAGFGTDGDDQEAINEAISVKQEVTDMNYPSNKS
How it was run: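 His-tagged SIRT1 expressed in E. coli BL21(DE3), 10 nM, incubated 25 min at 25° C. with 0.5 μM Ac-RHKK(Ac)W-NH2 peptide and 120 μM βNAD+ in 50 mM HEPES pH 7.5, […], 1 mM DTT, 0.05% BSA; formic acid stop. OAADPR or deacetylated peptide measured by mass spectrometry; EC1.5 and percent maximum activation versus DMSO control.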

SIRT1 [2] = target: T1, SIRT1; assay: TAMRA based mass spectrometry assay of SIRT1 activity; type: biochemical; settings: TAMRA assay; for TAMRA EC1.5 (μM): concentration giving 150% activation of SIRT1; for Emax: percent maximum fold activation, read-out: TAMRA % Fold Act
How it was run: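 Recombinant N-terminal His-tagged human SIRT1 (10 nM, E. coli) incubated 25 min at 25 °C with 0.5 μM 5TMR-labelled p53-derived acetyl-peptide and 120 μM βNAD+ in Tris-acetate pH 8 buffer with DTT and 0.05% BSA, compound at varying concentrations. Stopped with formic acid; deacetylated peptide or OAADPR measured by mass spectrometry relative to DMSO controls.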

| Compound | Trp EC1.5 (μM) (SIRT1 [1]) | Emax (SIRT1 [1]) | TAMRA EC1.5 (μM) (SIRT1 [2]) | Emax (SIRT1 [2]) |
| --- | --- | --- | --- | --- |
| O=C(Nc1ncccn1)c1cnn2ccc(-c3ccccc3C(F)(F)F)nc12 [Compound 266, N-(pyrimidin-2-yl)-5-(2-(trifluoromethyl)phenyl)pyrazolo[1,5-a]pyrimidine-3-carboxamide] | B (EC1.5 1-25 μM) | < 350% | B (EC1.5 1-25 μM) | ≥ 350% |
| O=C(Nc1cnccn1)c1cnn2ccc(-c3ccccc3C(F)(F)F)nc12 [Compound 267] | B (EC1.5 1-25 μM) | < 350% | A (EC1.5<1 μM) | ≥ 350% |
| O=C(Nc1cccc(CN2CCOCC2)n1)c1cnn2ccc(-c3ccccc3C(F)(F)F)nc12 [Compound 269] | B (EC1.5 1-25 μM) | ≥ 350% | A (EC1.5<1 μM) | ≥ 350% |
| CC(C)c1csc(C(=O)Nc2cnc3ccc(-c4ccccc4C(F)(F)F)nn23)n1 [Compound 272] | B (EC1.5 1-25 μM) | < 350% | A (EC1.5<1 μM) | ≥ 350% |
| Cc1nc(C(=O)Nc2cnc3ccc(-c4ccccc4C(F)(F)F)nn23)cs1 [Compound 273] | B (EC1.5 1-25 μM) | ≥ 350% | A (EC1.5<1 μM) | ≥ 350% |
| Cc1cc(C(=O)Nc2cnc3ccc(-c4ccccc4C(F)(F)F)nn23)nc(C)n1 [Compound 275] | B (EC1.5 1-25 μM) | < 350% | A (EC1.5<1 μM) | ≥ 350% |
| O=C(Nc1cnc2ccc(-c3ccccc3F)nn12)c1ccccn1 [Compound 279] | C (EC1.5>25 μM) | < 350% | B (EC1.5 1-25 μM) | < 350% |
| O=C(Nc1cnc2ccc(-c3ccccc3F)nn12)c1ccncn1 [Compound 281] | C (EC1.5>25 μM) | < 350% | C (EC1.5>25 μM) | < 350% |
| O=C(Nc1ccnc(OCC(O)CO)c1)c1cnc2ccc(-c3ccccc3F)nn12 (stereo not drawn) [Compound 284] | C (EC1.5>25 μM) | < 350% | C (EC1.5>25 μM) | < 350% |
| Cc1cc(OCC(O)CO)nc(NC(=O)c2cnc3ccc(-c4ccccc4Cl)nn23)n1 (stereo not drawn) [Compound 285] | B (EC1.5 1-25 μM) | < 350% | B (EC1.5 1-25 μM) | < 350% |
| O=C(Nc1cnc2ccc(-c3ccccc3Cl)nn12)c1ccccn1 [Compound 287] | C (EC1.5>25 μM) | < 350% | A (EC1.5<1 μM) | ≥ 350% |
| O=C(Nc1cnc2ccc(-c3ccccc3Cl)nn12)c1ncccn1 [Compound 290] | C (EC1.5>25 μM) | < 350% | B (EC1.5 1-25 μM) | ≥ 350% |
| O=C(Nc1cnc2ccc(-c3ccccc3Cl)nn12)c1cscn1 [Compound 291] | C (EC1.5>25 μM) | < 350% | B (EC1.5 1-25 μM) | ≥ 350% |
| Cc1nc(C(=O)Nc2cnc3ccc(-c4ccccc4Cl)nn23)c(C)s1 [Compound 293] | C (EC1.5>25 μM) | < 350% | A (EC1.5<1 μM) | ≥ 350% |
| O=C(Nc1ccnc(OCC(F)(F)F)c1)c1cnc2ccc(-c3ccccc3C(F)(F)F)nn12 [Compound 296] | B (EC1.5 1-25 μM) | < 350% | B (EC1.5 1-25 μM) | < 350% |
| O=C(Nc1cnc(OCC(O)CO)cn1)c1cnc2ccc(-c3ccccc3C(F)(F)F)nn12 (stereo not drawn) [Compound 297] | B (EC1.5 1-25 μM) | < 350% | A (EC1.5<1 μM) | ≥ 350% |
| O=C(Nc1cnc2ccc(-c3ccccc3F)nn12)c1nccs1 [Compound 303] | C (EC1.5>25 μM) | < 350% | B (EC1.5 1-25 μM) | < 350% |
| O=C(Nc1cnc2ccc(-c3ccccc3F)nn12)c1cccc(OCC(O)CO)n1 (stereo not drawn) [Compound 305] | A (EC1.5<1 μM) | < 350% | B (EC1.5 1-25 μM) | < 350% |

| Compound | Trp EC1.5 (μM) (SIRT1 [1]) | Emax (SIRT1 [1]) | TAMRA EC1.5 (μM) (SIRT1 [2]) | Emax (SIRT1 [2]) |
| --- | --- | --- | --- | --- |
| O=C(Nc1cnc2ccc(-c3ccccc3Cl)nn12)c1cccc(N2CCC2)n1 [Compound 308] | A (EC1.5<1 μM) | < 350% | A (EC1.5<1 μM) | ≥ 350% |
| O=C(Nc1cnc2ccc(-c3ccccc3Cl)nn12)c1cccc(OCC(O)CO)n1 (stereo not drawn) [Compound 309] | A (EC1.5<1 μM) | < 350% | A (EC1.5<1 μM) | ≥ 350% |
| O=C(Nc1nccc(OCC(F)(F)F)n1)c1cnc2ccc(-c3ccccc3C(F)(F)F)nn12 [Compound 311] | A (EC1.5<1 μM) | ≥ 350% | A (EC1.5<1 μM) | ≥ 350% |
| O=C(Nc1cnc2ccc(-c3ccccc3OC(F)(F)F)nn12)c1ncccn1 [Compound 315] | B (EC1.5 1-25 μM) | ≥ 350% | A (EC1.5<1 μM) | ≥ 350% |
| Cc1nc(C(=O)Nc2cnc3ccc(-c4ccccc4OC(F)(F)F)nn23)cs1 [Compound 317] | C (EC1.5>25 μM) | < 350% | A (EC1.5<1 μM) | ≥ 350% |
| Cc1cnc(C(=O)Nc2cnc3ccc(-c4ccccc4OC(F)(F)F)nn23)s1 [Compound 320] | B (EC1.5 1-25 μM) | < 350% | A (EC1.5<1 μM) | ≥ 350% |
| O=C(Nc1cnc2ccc(-c3ccccc3OC(F)(F)F)nn12)c1cccc(N2CCOCC2)n1 [Compound 321] | A (EC1.5<1 μM) | ≥ 350% | A (EC1.5<1 μM) | ≥ 350% |
| O=C(Nc1cnc2ccc(-c3ccccc3OC(F)(F)F)nn12)c1cccc(OCC(O)CO)n1 (stereo not drawn) [Compound 323] | A (EC1.5<1 μM) | ≥ 350% | A (EC1.5<1 μM) | ≥ 350% |
| CCNc1cccc(NC(=O)c2cnc3ccc(-c4ccccc4Cl)nn23)n1 [Compound 326] | A (EC1.5<1 μM) | < 350% | A (EC1.5<1 μM) | ≥ 350% |
| CCNc1cccc(NC(=O)c2cnc3ccc(-c4ccccc4F)nn23)n1 [Compound 327] | A (EC1.5<1 μM) | < 350% | A (EC1.5<1 μM) | ≥ 350% |
| N#Cc1ccccc1-c1ccc2ncc(NC(=O)c3cnccn3)n2n1 [Compound 329] | C (EC1.5>25 μM) | < 350% | B (EC1.5 1-25 μM) | < 350% |
| N#Cc1ccccc1-c1ccc2ncc(NC(=O)c3cscn3)n2n1 [Compound 332] | C (EC1.5>25 μM) | < 350% | B (EC1.5 1-25 μM) | < 350% |
| N#Cc1ccccc1-c1ccc2ncc(NC(=O)c3nccs3)n2n1 [Compound 335] | B (EC1.5 1-25 μM) | < 350% | B (EC1.5 1-25 μM) | < 350% |
| N#Cc1ccccc1-c1ccc2ncc(NC(=O)c3cccc(N4CCC4)n3)n2n1 [Compound 338] | A (EC1.5<1 μM) | < 350% | A (EC1.5<1 μM) | ≥ 350% |
| N#Cc1ccccc1-c1ccc2ncc(NC(=O)c3cccc(OCC(O)CO)n3)n2n1 (stereo not drawn) [Compound 339] | A (EC1.5<1 μM) | < 350% | A (EC1.5<1 μM) | ≥ 350% |
| CC1(COc2ccnc(NC(=O)c3cnc4ccc(-c5ccccc5C(F)(F)F)nn34)n2)COC1 [Compound 340] | A (EC1.5<1 μM) | ≥ 350% | A (EC1.5<1 μM) | ≥ 350% |
| Cc1nc2ccc(-c3ccccc3Cl)nn2c1NC(=O)c1ccccn1 [Compound 346] | C (EC1.5>25 μM) | < 350% | B (EC1.5 1-25 μM) | < 350% |
| Cc1nc2ccc(-c3ccccc3Cl)nn2c1NC(=O)c1ccncn1 [Compound 348] | C (EC1.5>25 μM) | < 350% | C (EC1.5>25 μM) | < 350% |
